Data published in patent US20250197641A1, “OPTICAL ABSORBENT” (priority 2023, published 2025).

Tests used:
Assay type in all cases: physicochemical
[1] = Absorption maximum measurement; conditions: chloroform, about 10^-5 M
Experimental: The maximum absorption was evaluated by a conventional method. Specifically, the sample was dissolved in chloroform solvent at a concentration of about 10^−5 M and then evaluated using measuring equipment (Agilent, Varian Cary 4000).

[2] = Pyrolysis temperature (Td 5%) analysis by TGA; conditions: 25-800° C., 10° C./min, N2
Experimental: The Td 5% is a value obtained through TGA (Thermogravimetric Analysis) analysis. It is the value (Td 5%) at a weight loss of 5% confirmed under the conditions of a temperature range of 25° C. to 800° C., a temperature increase rate of 10° C./min, and a nitrogen (N2) atmosphere of 60 cm^3/min.
Thermogravimetric Analysis (TGA) of the chemical compound was performed by using Scinco's TGA N-1000 equipment. The analysis was performed by using approximately 3 mg of sample (chemical compound) and the analysis was conducted under conditions of a temperature range of 25° C. to 800° C., a temperature increase rate of 10° C./min, and nitrogen (N2) atmosphere of 60 cm^3/min. The value at […] (Td 5%) was used as the Td decomposition temperature.

[3] = Solubility of the absorbent in methylene chloride; conditions: room temperature (about 25° C.)
Experimental: The solubility of the absorbent was evaluated. Solubility was determined based on the following criteria by evaluating the solubility of the absorbent in the solvent (MC, Methylene Chloride) at room temperature (about 25° C.).

[4] = Transmittance of absorption membrane before and after reliability evaluation (Test Example 1); conditions: for 425~465 nm Tave, Δ / 425~465 nm Tmin, Δ / 466~480 nm Tave, Δ / 466~480 nm Tmin, Δ / 480~560 nm Tave, Δ / λmax Tmax (transmittance at the absorption maximum), Δ: change before/after 85° C.; for 425~465 nm Tave, Δ / 425~465 nm Tmin, Δ / 466~480 nm Tave, Δ / 466~480 nm Tmin, Δ / 480~560 nm Tave, Δ / λmax Tmax (transmittance at the absorption maximum), Δ / 425~465 nm Tave, A / 425~465 nm Tmin, A / 466~480 nm Tave, A / 466~480 nm Tmin, A / 480~560 nm Tave, A: 85% RH, 120 hours; for 425~465 nm Tave, B / 425~465 nm Tmin, B / 466~480 nm Tave, B / 466~480 nm Tmin, B / 480~560 nm Tave, B: silicone resin membrane about 6 μm, before reliability evaluation; for 425~465 nm Tave, A / 425~465 nm Tmin, A / 466~480 nm Tave, A / 466~480 nm Tmin, A / 480~560 nm Tave, A: silicone resin membrane, after 85° C.
Experimental: The transmittance spectrum was measured using a spectrophotometer (Manufacturer: Perkinelmer, Product Name: Lambda 750 Spectrophotometer) on a specimen obtained by cutting the measurement object (e.g., an absorption membrane) so that the width and height were 10 mm and 10 mm, respectively. The transmittance spectrum was measured for each wavelength according to the equipment manual. The specimen was placed on a straight line between a measuring beam of the spectrophotometer and a detector and the transmittance spectrum was confirmed by setting the incident angle of the measuring beam to 0°. The incident angle of 0° is a direction substantially parallel to the surface normal direction of the specimen. The average transmittance within a certain wavelength range in the transmittance spectrum is the result of measuring the transmittance at each wavelength while increasing the wavelength by 1 nm starting from the shortest wavelength in the wavelength range, and then calculating the arithmetic average of the measured transmittances. The maximum transmittance is the maximum transmittance among the transmittances measured while increasing the wavelength by 1 nm and the minimum transmittance is the minimum transmittance among the transmittances measured while increasing the wavelength by 1 nm. For example, the average transmittance within the wavelength range of 350 nm to 360 nm is the arithmetic mean of the transmittance measured at the wavelength of 350 nm, 351 nm, 352 nm, 353 nm, 354 nm, 355 nm, 356 nm, 357 nm, 358 nm, 359 nm, and 360 nm. The maximum transmittance within the wavelength range of 350 nm to 360 nm is the highest transmittance measured at wavelengths of 350 nm, 351 nm, 352 nm, 353 nm, 354 nm, 355 nm, 356 nm, 357 nm, 358 nm, 359 nm and 360 nm and the minimum transmittance within the wavelength range of 350 nm to 360 nm is the lowest transmittance among the transmittances measured at wavelengths of 350 nm, 351 nm, 352 nm, 353 nm, 354 nm, 355 nm, 356 nm, 357 nm, 358 nm, 359 nm, and 360 nm.
A coating solution was prepared by mixing silicone resin (Dow Chemical, RSN-0217), absorbent, and solvent (cyclohexanone) as resin components. The mixing ratio of the resin component, absorbent, and solvent was set to be 69.3:0.99:29.7 in weight ratio (resin:absorbent:solvent).
The coating solution was coated on a transparent substrate (a glass substrate manufactured by SCHOTT) and maintained at 140° C. for about 2 hours to form an absorption membrane with a thickness of about 6 μm.
Tables 2 and 3 below summarize the transmittance of the absorption membrane before and after reliability evaluation in the ultraviolet and near-infrared regions. The reliability evaluation is an evaluation of maintaining the absorption membrane at 85° C. and under 85% relative humidity condition for 120 hours. In Table 2, B refers to the result before performing the reliability evaluation and A refers to the result after performing the reliability evaluation. Additionally, in Table 2, λmax means the transmittance at the absorption maximum.
In Tables 2 and 3, Δ is the rate of change (%) of each characteristic before and after the reliability evaluation, calculated as 100×[…]/B, where […], B is the value indicated by B in Table 2. In Table 2, Tmax refers to the highest transmittance within the corresponding wavelength region, Tave refers to the average transmittance within the corresponding wavelength region, and Tmin refers to the minimum transmittance within the corresponding wavelength region.

[5] = Absorption spectra of absorption membrane before and after high temperature/high humidity evaluation (Test Example 2); conditions: 85% relative humidity, 120 hours; for ΔA = 100×(Af−Ai)/Ai / Δλ = 100×(λf−λi)λi: 85° C.; for Af, transmittance at the absorption maximum wavelength / λf, absorption maximum wavelength: absorption membrane after 85° C.; for Ai, transmittance at the absorption maximum wavelength / λi, absorption maximum wavelength: absorption membrane before 85° C.
Source text: FIGS. 4 to 6 are the absorption spectra of the absorption membranes prepared in Test Example 1 using the absorbents of Embodiments 1 to 3, respectively. FIGS. 7 to 9 are the absorption spectrum of the absorption membrane prepared in Test Example using the absorbents of Comparative Examples 1 to 3, respectively. In the FIGS., the spectra indicated before reliability is the result immediately after preparing the absorption membrane, and the spectra indicated after reliability is the result after high temperature/high humidity evaluation was performed on the absorption membrane. The high temperature/high humidity evaluation is an evaluation where the absorption membrane is maintained at a temperature of 85° C. under a relative humidity of 85% for 120 hours. In Tables 4 and 5, Af is the transmittance at the absorption maximum wavelength of the absorption membrane maintained at 85° C. under 85% relative humidity for 120 hours and λf is the absorption maximum wavelength for after case. Ai is the transmittance at the absorption maximum wavelength of the absorption membrane before being maintained at 85° C. under 85% relative humidity for 120 hours and λi is the absorption maximum wavelength for before case. In Tables 4 and 5, ΔA is a value calculated as 100×(Af−Ai)/Ai, and Δλ is a value calculated as 100×(λf−λi)λi.

Row | Compound | Maximum Absorption Wavelength [1] [nm] | Td 5% [2] [°C] | 425~465 nm Tave, Δ [4] [%] | 425~465 nm Tmin, Δ [4] [%] | 466~480 nm Tave, Δ [4] [%] | 466~480 nm Tmin, Δ [4] [%] | 480~560 nm Tave, Δ [4] [%] | λmax Tmax (transmittance at the absorption maximum), Δ [4] [%] | 425~465 nm Tave, B [4] [%] | 425~465 nm Tmin, B [4] [%] | 466~480 nm Tave, B [4] [%] | 466~480 nm Tmin, B [4] [%] | 480~560 nm Tave, B [4] [%] | 425~465 nm Tave, A [4] [%] | 425~465 nm Tmin, A [4] [%] | 466~480 nm Tave, A [4] [%] | 466~480 nm Tmin, A [4] [%] | 480~560 nm Tave, A [4] [%] | ΔA = 100×(Af−Ai)/Ai [5] [%] | Δλ = 100×(λf−λi)λi [5] [%] | also measured
1 | CCCCN1\C(=C/C=C/C=C/C=C/C2=[N+](CCCC)c3ccccc3C2(C)C)C(C)(C)c2ccccc21 [Comparative Example 1] | 761 | 215 | 0.2 | 1.0 | −0.6 | −0.7 | −0.3 | 14.7 | 88.7 | 86.5 | 90.1 | 89.8 | 90.1 | 88.9 | 87.5 | 89.5 | 89.1 | 89.8 | 69.0 | −13 | Solubility [3]: A (When solubility is 1 mass % or more); Af, transmittance at the absorption maximum wavelength [5]: 36.0%; λf, absorption maximum wavelength [5]: 747 nm; Ai, transmittance at the absorption maximum wavelength [5]: 21.3%; λi, absorption maximum wavelength [5]: 748 nm
2 | CCCCN1\C(=C/C=C/C=C/C=C/C2=[N+](CCCC)c3ccc4ccccc4c3C2(C)C)C(C)(C)c2c1ccc1ccccc21 [Comparative Example 2] | 801 | 211 | 0 | −0.2 | 0.1 | −0.1 | −0.3 | 12.8 | 89.6 | 88.9 | 90.2 | 89.8 | 91.2 | 89.6 | 88.7 | 90.2 | 89.7 | 90.9 | 27.1 | 13 | Solubility [3]: A (When solubility is 1 mass % or more); Af, transmittance at the absorption maximum wavelength [5]: 59.8%; λf, absorption maximum wavelength [5]: 785 nm; Ai, transmittance at the absorption maximum wavelength [5]: 47.1%; λi, absorption maximum wavelength [5]: 784 nm
3 | CC1(C)C(/C=C/C=C/C=C/C=C2\N(C[Si](C)(C)C)c3ccccc3C2(C)C)=[N+](C[Si](C)(C)C)c2ccccc21 [Embodiment 1] | 763 | 231 | 0 | 0.1 | 0 | 0 | 0 | 0.8 | 89.7 | 87.9 | 91.1 | 90.7 | 91.4 | 89.8 | 88 | 91.1 | 90.7 | 91.4 | 6.6 | 0 | Af, transmittance at the absorption maximum wavelength [5]: 12.3%; λf, absorption maximum wavelength [5]: 758 nm; Ai, transmittance at the absorption maximum wavelength [5]: 11.5%; λi, absorption maximum wavelength [5]: 758 nm
4 | CC1(C)C(/C=C/C=C/C=C/C=C2\N(C[Si](C)(C)C)c3ccc4ccccc4c3C2(C)C)=[N+](C[Si](C)(C)C)c2ccc3ccccc3c21 [Embodiment 2] | 803 | 230 | 0.1 | 0.1 | 0 | 0.1 | 0 | 1.4 | 89.5 | 88.6 | 90.3 | 89.8 | 91.3 | 89.5 | 88.7 | 90.3 | 89.8 | 91.3 | 4.2 | 0 | Af, transmittance at the absorption maximum wavelength [5]: 34.9%; λf, absorption maximum wavelength [5]: 790 nm; Ai, transmittance at the absorption maximum wavelength [5]: 33.5%; λi, absorption maximum wavelength [5]: 790 nm
5 | CC1(C)C(/C=C/C2=C(Cl)C(=C/C=C3\N(C[Si](C)(C)C)c4ccccc4C3(C)C)/CC2)=[N+](C[Si](C)(C)C)c2ccccc21 [Embodiment 3] | 817 | 216 | 0.1 | 0.1 | 0.1 | 0.1 | 0. | 0.8 | 87.8 | 86.8 | 89.4 | 88.1 | 91 | 87.9 | 87 | 89.5 | 88.2 | 91 | 6.7 | 0 | Af, transmittance at the absorption maximum wavelength [5]: 12.3%; λf, absorption maximum wavelength [5]: 823 nm; Ai, transmittance at the absorption maximum wavelength [5]: 11.5%; λi, absorption maximum wavelength [5]: 82. nm
